According to ChEMBL document CHEMBL1121882, “Approaches to vasodilating/beta-adrenergic blocking agents: examples of the dihydrolutidine type” (1981):

How the values were obtained:
[1] = system: Rattus norvegicus; test: Compound was tested for effect on arterial pressure in spontaneously hypertensive rats (SHR) at 20 mg/kg administered intraperitoneally; Death; format: functional, organism-based; design: dose 20 mg/kg; conditions: Artery
[2] = system: Rattus norvegicus; test: Compound was tested for effect on arterial pressure in spontaneously hypertensive rats (SHR) at 5 mg/kg, po; format: functional, Artery
[3] = system: Rattus norvegicus; test: Compound was tested for effect on arterial pressure in spontaneously hypertensive rats (SHR) at 1.25 mg/kg, po; format: functional, Artery
[4] = system: Rattus norvegicus; test: Compound was tested for effect on arterial pressure in spontaneously hypertensive rats (SHR) at 20 mg/kg administered intraperitoneally; format: functional, Artery; conditions: route intraperitoneal
[5] = system: Rattus norvegicus; test: Compound was tested for effect on arterial pressure in spontaneously hypertensive rats (SHR) at 20 mg/kg, po; format: functional, Artery

SMILES	Max fall in MAP [1]	Max fall in MAP [2] [mmHg]	Max fall in MAP [3] [mmHg]	further results
CCOC(=O)C1=C(C)N=C(C)/C(=C(/O)OCC)C1c1ccc(OCC(O)CNC(C)(C)C)cc1 (stereo not given)	Death	17	–	–
CCOC(=O)C1=C(C)N=C(C)/C(=C(/O)OCC)C1c1ccc(OCC(O)CNC(C)(C)C)cc1C (stereo not given)	Death	42	12	–
CCOC(=O)C1=C(C)N=C(C)/C(=C(/O)OCC)C1c1ccccc1C(F)(F)F (stereo not given)	–	41	–	–
CC(C)NCC(O)COc1cccc2ccccc12 (stereo not given) [PROPRANOLOL]	–	7	–	–
CCOC(=O)C1=C(C)N=C(C)/C(=C(/O)OCC)C1c1ccccc1OCC(O)CNC(C)(C)C (stereo not given)	–	–	–	Max fall in MAP [4]: 15 mmHg; Max fall in MAP [5]: 16 mmHg
CC(C)(C)NC[C@H](O)COc1nsnc1N1CCOCC1 [TIMOLOL]	–	–	-1	–
